Test results as given in ChEMBL document CHEMBL3808350, “Stacking with No Planarity?” (ACS Med Chem Lett, 2016).

Tests used:
[1] = Displacement of (Z)-5-(4-(3-carboxy-3-hydroxyacryloyl)-4-(4-chlorobenzyl)piperidine-1-carbonyl)-2-(6-hydroxy-3-oxo-3H-xanthen-9-yl)benzoic acid from Influenza A virus (A/Viet Nam/1203/2004(H5N1)) recombinant C-terminal 10X-His-tagged polymerase acidic protein (1 to 209 residues) expressed in Escherichia coli BL21 (DE3) after 30 mins by fluorescence polarization assay
[2] = molecular target: T1, Bifunctional epoxide hydrolase 2 (Homo sapiens, UniProt P34913); assay: Inhibition of sEH (unknown origin)
T1 sequence (P34913 whole entry): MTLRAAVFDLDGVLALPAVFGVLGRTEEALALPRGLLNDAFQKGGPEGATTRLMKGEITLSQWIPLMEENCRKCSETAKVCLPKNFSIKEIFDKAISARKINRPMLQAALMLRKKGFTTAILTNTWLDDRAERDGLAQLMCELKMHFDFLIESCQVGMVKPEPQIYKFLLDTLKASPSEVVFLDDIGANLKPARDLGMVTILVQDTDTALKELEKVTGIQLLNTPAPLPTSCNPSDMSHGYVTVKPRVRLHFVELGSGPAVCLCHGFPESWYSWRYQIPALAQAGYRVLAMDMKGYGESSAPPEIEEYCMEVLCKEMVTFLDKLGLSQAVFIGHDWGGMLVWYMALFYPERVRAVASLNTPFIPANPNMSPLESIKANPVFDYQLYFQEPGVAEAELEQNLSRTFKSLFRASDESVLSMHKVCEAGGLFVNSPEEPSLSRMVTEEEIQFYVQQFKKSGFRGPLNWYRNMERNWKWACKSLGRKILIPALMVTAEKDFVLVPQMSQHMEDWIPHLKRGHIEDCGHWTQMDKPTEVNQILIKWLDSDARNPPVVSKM

Aminopeptidase B = Aminopeptidase B (Homo sapiens, UniProt Q9H4A4); assay: Inhibition of aminopeptidase B (unknown origin)
Chain of Aminopeptidase B (Q9H4A4 whole entry): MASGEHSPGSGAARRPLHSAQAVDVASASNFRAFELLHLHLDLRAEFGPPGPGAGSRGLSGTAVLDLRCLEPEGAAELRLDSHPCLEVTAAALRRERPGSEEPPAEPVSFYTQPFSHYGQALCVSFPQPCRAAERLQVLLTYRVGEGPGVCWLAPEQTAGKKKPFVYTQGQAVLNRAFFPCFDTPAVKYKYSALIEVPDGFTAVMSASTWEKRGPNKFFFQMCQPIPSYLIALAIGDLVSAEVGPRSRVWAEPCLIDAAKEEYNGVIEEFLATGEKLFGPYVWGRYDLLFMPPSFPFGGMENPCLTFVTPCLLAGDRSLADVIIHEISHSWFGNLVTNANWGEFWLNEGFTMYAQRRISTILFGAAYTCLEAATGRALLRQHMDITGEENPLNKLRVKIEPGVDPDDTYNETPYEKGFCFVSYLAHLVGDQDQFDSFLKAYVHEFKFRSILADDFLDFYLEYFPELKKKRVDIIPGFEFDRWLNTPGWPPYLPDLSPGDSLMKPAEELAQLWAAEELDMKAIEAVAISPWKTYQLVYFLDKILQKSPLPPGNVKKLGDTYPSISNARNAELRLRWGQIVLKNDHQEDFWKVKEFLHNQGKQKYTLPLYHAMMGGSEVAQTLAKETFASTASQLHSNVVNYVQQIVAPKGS

Structure (SMILES)	Ki [1]	IC50 (Aminopeptidase B)	other results
O=C(O)/C(O)=C/C(O)C1(Cc2ccc(Cl)cc2)CCN(CC2CCCCC2)CC1 (stereo not given)	84 nM		
O=C(Nc1ccccc1)NC1CCCCC1			IC50 [2]: 760 nM
O=C(O)/C(O)=C/C(O)C1(Cc2ccc(Cl)cc2)CCN(Cc2ccccc2)CC1 (stereo not given)	90 nM		
CC(C)C[C@H](NC(=O)[C@@H](O)[C@H](N)Cc1ccccc1)C(=O)O [UBENIMEX]		160000 nM	
CC(C)C[C@H](NC(=O)[C@@H](O)[C@H](N)CC1CCCCC1)C(=O)O		3500 nM	
